The subject of test [1] is Enterobacter cloacae. Nature of the test: The compound was evaluated for antimicrobial activity against Enterobacter cloacae OC 4081 by inhibiting enzyme E2 (const). The format is functional.
Test [2] has as its system Enterobacter cloacae. Nature of the test: The compound was evaluated for antimicrobial activity against Enterobacter cloacae OC 4080 by inhibiting enzyme P99. The format is functional.
Test [3] has as its system Escherichia coli. Kind of test: The compound was evaluated for antimicrobial activity against Escherichia coli OC 4075 by inhibiting enzyme TEM-1. The format is functional.
The target of test [4] is Beta-lactamase TEM (Escherichia coli) (UniProt P62593). Kind of test: Inhibitory activity against class A Beta-lactamase TEM isolated from Escherichia coli.
Test [5] has as its target Beta-lactamase (Enterobacter cloacae, UniProt P05364). Kind of test: Inhibitory activity against class C Beta-lactamase isolated from Enterobacter cloacae.
The subject of test [6] is Enterobacter cloacae. Kind of test: The compound was evaluated for antimicrobial activity against Enterobacter cloacae OC 4092 by inhibiting enzyme E2 (ind). The format is functional.
For test [7], the system named is Pseudomonas aeruginosa. Kind of test: The compound was evaluated for antimicrobial activity against Pseudomonas aeruginosa OC 4290 by inhibiting enzyme AmpC(const). It counts as functional.
Test [8] has as its system Pseudomonas aeruginosa. Nature of the test: The compound was evaluated for antimicrobial activity against Pseudomonas aeruginosa OC 4270 by inhibiting enzyme AmpC(ind). The format is functional.
Test [9] deals with Serratia marcescens. Kind of test: The compound was evaluated for antimicrobial activity against Serratia marcescens OC 4101 by inhibiting enzyme AmpC(ind). The format is functional.
Test [10] relates to Serratia marcescens. Kind of test: The compound was evaluated for antimicrobial activity against Serratia marcescens OC 4294 by inhibiting enzyme AmpC(const). It counts as functional.
Test [11] concerns Pseudomonas aeruginosa. Kind of test: The ratio of compound to that of piperacillin was evaluated for antimicrobial activity against Pseudomonas aeruginosa OC 4290 by inhibiting enzyme AmpC(const) at 4 ug/mL. It counts as functional.
Test [12] relates to Enterobacter cloacae. Nature of the test: The ratio of compound to that of piperacillin was evaluated for antimicrobial activity against Enterobacter cloacae OC 4080 by inhibiting enzyme P99 at 4 ug/mL. It counts as functional.
The subject of test [13] is Serratia marcescens. Kind of test: The ratio of compound to that of piperacillin was evaluated for antimicrobial activity against Serratia marcescens OC 4294 by inhibiting enzyme AmpC(const) at 4 ug/mL. It counts as functional.
Test [14] deals with Escherichia coli. Kind of test: The ratio of compound to that of piperacillin was evaluated for antimicrobial activity against Escherichia coli OC 4075 by inhibiting enzyme TEM-1 at 4 ug/mL. It counts as functional.
The test system of test [15] is Serratia marcescens. Kind of test: The ratio of compound to that of piperacillin was evaluated for antimicrobial activity against Serratia marcescens OC 4101 by inhibiting enzyme AmpC(ind) at 4 ug/mL. It counts as functional.
Test [16] relates to Pseudomonas aeruginosa. Nature of the test: The ratio of compound to that of piperacillin was evaluated for antimicrobial activity against Pseudomonas aeruginosa OC 4270 by inhibiting enzyme AmpC(ind) at 4 ug/mL. It counts as functional.
Test [17] has as its system Enterobacter cloacae. Nature of the test: The ratio of compound to that of piperacillin was evaluated for antimicrobial activity against Enterobacter cloacae OC 4080 by inhibiting enzyme P99 at 1 ug/mL. It counts as functional.
Test [18] relates to Serratia marcescens. Nature of the test: The ratio of compound to that of piperacillin was evaluated for antimicrobial activity against Serratia marcescens OC 4294 by inhibiting enzyme AmpC(const) at 1 ug/mL. The format is functional.
Test [19] relates to Serratia marcescens. Nature of the test: The ratio of compound to that of piperacillin was evaluated for antimicrobial activity against Serratia marcescens OC 4101 by inhibiting enzyme AmpC(ind) at 1 ug/mL. The format is functional.
Test [20] has as its system Pseudomonas aeruginosa. Kind of test: The ratio of compound to that of piperacillin was evaluated for antimicrobial activity against Pseudomonas aeruginosa OC 4290 by inhibiting enzyme AmpC(const) at 1 ug/mL. The format is functional.
Test [21] relates to Enterobacter cloacae. Nature of the test: The ratio of compound to that of piperacillin was evaluated for antimicrobial activity against Enterobacter cloacae OC 4080 by inhibiting enzyme P99 at 4 ug/mL; not applicable. It counts as functional, organism-based.
For test [22], the system named is Pseudomonas aeruginosa. Kind of test: The ratio of compound to that of piperacillin was evaluated for antimicrobial activity against Pseudomonas aeruginosa OC 4270 by inhibiting enzyme AmpC(ind) at 1 ug/mL. The format is functional.
For test [23], the system named is Escherichia coli. Kind of test: The ratio of compound to that of piperacillin was evaluated for antimicrobial activity against Escherichia coli OC 4075 by inhibiting enzyme TEM-1 at 1 ug/mL. The format is functional.
The subject of test [24] is Escherichia coli. Nature of the test: The ratio of compound to that of piperacillin was evaluated for antimicrobial activity against Escherichia coli OC 4075 by inhibiting enzyme TEM-1 at 4 ug/mL; not applicable. It counts as functional, organism-based.
Where [25] appears, read: Enterobacter cloacae, read-out: MIC.
Setting [26] is: Escherichia coli, read-out: MIC.
The mark [27] stands for this setting: Pseudomonas aeruginosa, read-out: MIC.

pIC50: −log10 of the molar value. Values after ≈ are worked out from the molar mass of the structure shown. Active and inactive are the calls of the source. The rule behind the calls is not given here. A value given as a limit tells only on which side of the number the result lay.

One may read the MIC as the lowest concentration that inhibits growth of the organism. One may read the pIC50 as the negative decadic logarithm of the IC50, by convention in mol/L. Low values mean a high IC50, high ones a low IC50.

Beta-lactamase TEM (Escherichia coli), sequence (P62593 whole entry, looked up): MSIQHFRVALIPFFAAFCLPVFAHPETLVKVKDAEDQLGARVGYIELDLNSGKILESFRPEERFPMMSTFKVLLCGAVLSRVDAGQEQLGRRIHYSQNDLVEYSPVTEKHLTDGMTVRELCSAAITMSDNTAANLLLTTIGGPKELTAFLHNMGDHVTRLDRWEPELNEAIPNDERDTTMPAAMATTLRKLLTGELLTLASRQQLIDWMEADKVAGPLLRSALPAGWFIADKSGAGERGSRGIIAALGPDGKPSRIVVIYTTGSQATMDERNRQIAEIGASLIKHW
Beta-lactamase, sequence (P05364 whole entry): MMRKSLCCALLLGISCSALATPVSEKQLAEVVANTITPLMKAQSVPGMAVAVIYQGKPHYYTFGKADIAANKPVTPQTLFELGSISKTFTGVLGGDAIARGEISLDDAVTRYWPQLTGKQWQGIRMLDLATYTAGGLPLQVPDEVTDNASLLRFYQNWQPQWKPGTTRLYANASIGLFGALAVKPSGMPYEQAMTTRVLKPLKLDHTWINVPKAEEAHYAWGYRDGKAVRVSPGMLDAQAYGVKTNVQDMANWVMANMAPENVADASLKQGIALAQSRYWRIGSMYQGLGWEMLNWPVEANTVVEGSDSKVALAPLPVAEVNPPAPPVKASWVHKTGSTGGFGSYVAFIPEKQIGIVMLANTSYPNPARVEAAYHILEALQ

Consider `O=C1NC(=O)C(=CC=Cc2ccc([N+](=O)[O-])o2)S1`, for which the MIC in [1] was determined as 4 µg/mL (≈ 15 µM); in test [2] (setting [25]), 0.5 µg/mL (≈ 1.88 µM); in test [3] (setting [26]), 1 µg/mL (≈ 3.76 µM); in test [6] it was 4 µg/mL (≈ 15 µM); in [7] (setting [27]), 32 µg/mL (≈ 120 µM); in [8] (setting [27]), 32 µg/mL (≈ 120 µM). For the same molecule, the pIC50 in test [4] and in [5] was < 4.30 in each case.
As for `CCN1CCN(C(=O)N[C@@H](C(=O)N[C@@H]2C(=O)N3[C@@H]2SC(C)(C)[C@@H]3C(=O)O)c2ccccc2)C(=O)C1=O` [PIPERACILLIN], the MIC in test [9] was 8 µg/mL (≈ 15.5 µM); in [2] (setting [25]) it was > 64 µg/mL; in [3] it was > 64 µg/mL; in test [10], > 64 µg/mL; in test [7] (setting [27]) it was > 64 µg/mL; in test [8] (setting [27]) it was 8 µg/mL (≈ 15.5 µM).
Turning to `CN(C)c1ccc(C=CC=C2SC(=S)NC2=O)cc1`, the values for the negative-log IC50 (pIC50) in test [4] and in test [5] were < 4.00 and 5.10, respectively.
For the molecule `O=C1NC(=S)S/C1=C\c1ccccc1C(=O)O`, the negative-log IC50 (pIC50) in test [4] and in test [5] was < 3.15 throughout.
As to `C[C@]1(Cn2ccnn2)[C@H](C(=O)O)N2C(=O)C[C@H]2S1(=O)=O` [TAZOBACTAM], the MIC was determined as 32 µg/mL in [11]; 64 µg/mL in [12]; 32 µg/mL in [13]; 8 µg/mL in [14]; 4 µg/mL in test [15]; 8 µg/mL in test [16].
As to `O=C1NC(=S)SC1=CC=Cc1ccccc1`, the results for the pIC50 in test [4] and in [5] were < 3.15 and 4.12, respectively.
For the molecule `CCN1C(=O)/C(=C/c2ccccc2)SC1=S`, the pIC50 was 3.36 in test [4] and 3.62 in [5].
Take `O=C1NC(=S)SC1=CC=Cc1ccc([N+](=O)[O-])cc1`: the pIC50 was 4.00 in [4] and 5.38 in test [5].
For the molecule `N#Cc1ccc(/C=C2\SC(=S)NC2=O)cc1`, the negative logarithm of the IC50 (pIC50) in [4] is < 3.15; in [5] it was 3.30.
Turning to `O=C1NC(=S)SC1=CC=Cc1ccc([N+](=O)[O-])o1`, the minimal inhibitory concentration (MIC) was determined as 8 µg/mL (≈ 28.3 µM) in [9]; 32 µg/mL (≈ 113 µM) in test [1]; 2 µg/mL (≈ 7.08 µM) in [2]; 2 µg/mL (≈ 7.08 µM) in test [2] (setting [25]); 2 µg/mL (≈ 7.08 µM) in test [3]; 2 µg/mL (≈ 7.08 µM) in test [3] (setting [26]). Besides, the MIC in test [10] amounted to 8 µg/mL (≈ 28.3 µM); in test [6], 32 µg/mL (≈ 113 µM); in test [7] it was 32 µg/mL (≈ 113 µM); in test [7] (setting [27]), 32 µg/mL (≈ 113 µM); in test [8] it was 32 µg/mL (≈ 113 µM); in [8] (setting [27]) it was 32 µg/mL (≈ 113 µM). In addition, the Ratio in test [17] is on record as 64; in test [18], 32; in test [11], 8; in test [19], 2; in test [20], 16; in test [13], 8. Moreover, the Ratio in test [22] is 4; in test [15], 2; in [23], 64; in [16], 4. Further, the Ratio result in test [21] and in test [24] was “inactive” in each case. For the same molecule, the pIC50 in test [4] is 4.00; in [5] it was 6.35.
For the molecule `O=C1NC(=S)S/C1=C\c1cn(-c2ccccc2)nn1`, the results for the pIC50 in test [4] and in test [5] were < 3.15 and 4.08, respectively.
Take `O=C1/C(=C/c2ccccc2)SC(=S)N1CNc1nn[nH]n1`: the pIC50 in test [4] was < 3.15; in test [5], 3.36.
`O=C1NC(=S)S/C1=C\c1ccccc1[N+](=O)[O-]`: the pIC50 was < 3.15 in [4] and 3.54 in test [5].
`O=C1NC(=S)S/C1=C1/C(=O)Nc2ccccc21`: the pIC50 is 5.06 in [4] and 5.59 in [5].
`O=C1NC(=S)SC1=CC=Cc1ccco1`: the pIC50 in test [4] is 4.00; in [5] it was 4.21.
As for `O=C1/C(=C/c2ccccc2)SC(=S)N1CNc1nncs1`, the pIC50 in test [4] is 3.86; in test [5] it was 3.61.
In the case of `O=C1NC(=S)S/C1=C\c1ccc([N+](=O)[O-])cc1`, the pIC50 was < 3.15 in [4] and 4.37 in test [5].
With `O=C1NC(=S)S/C1=C\c1cn(-c2ccccc2)cn1`, the pIC50 in test [4] and in test [5] was < 3.15 throughout.
For the molecule `O=C1NC(=S)S/C1=C\c1ccccc1O`, the pIC50 in [4] is < 3.15; in test [5], 3.47.
The corresponding values for `O=C(O)CN1C(=O)/C(=C/c2ccccc2)SC1=S` are < 3.15 and < 3.15.
On to `O=C1NC(=S)S/C1=C\CCc1ccccc1`, for which the pIC50 in test [4] is 4.49; in [5], 5.01.
For the molecule `CC(=O)Nc1ccccc1/C=C1\SC(=S)NC1=O`, the negative-log IC50 (pIC50) in [4] was 3.72; in test [5], < 3.15.
